Test results published in US8697636B2 (priority 2007, dated 2014).
≈ marks a conversion by molar mass, not a printed value.

What was measured:
C. perfringens = assay: microbe, parasite or virus in culture; format: cell-based; conditions: Clostridium perfringens, read-out: minimum inhibitory concentration
[1] = tested on: pathogenic Clostridium sp.; conditions: cited from earlier work

Compound | MIC (C. perfringens) | activity against pathogenic Clostridium sp. [1]
Cc1ncc([N+](=O)[O-])n1CCO [metronidazole] | 25 µg/mL (≈ 146 µM) | 
ruminococcin A |  | active
